Measurements published in patent US4140769A, “3-Substituted salicylamides” (Miles Laboratories, Inc., priority 1978, dated 1979).
Counter-ions that a name gives are not always drawn. Like-named read-outs stand apart in the source and are kept apart here.

Legend:
[1] = test system: abdominal constriction response; assay: abdominal constriction response (analgesic activity, acetylcholine chloride-induced, s.c. dosing); format: in vivo, mice; details: for ED50: Mus musculus, sc; for analgesic activity, in words: Table II conclusions and summary; for ED50 / potency, in words: compared with control compound, other examples; for analgesic activity (no activity): at 20 mg/kg, hydrochloride
Method: The analgesic activity of the compounds of the present invention was tested in mice by means of the "abdominal constriction" response. The test is based on the observation that following interperitoneal injection of a noxious agent, such as acetylcholine chloride, mice show a response which consists of a wave of constriction and elongation passing caudally along the abdominal wall, sometimes accompanied by twisting of the trunk and followed by extension of the hind limbs. […] Non-fasted female mice, weighing between 20 and 25 g, were used in the studies. […] The animals were then placed in a circular glass enclosure and the number of responses counted during a given time period. Compounds completely inhibiting the response to acetycholine in at least five out of ten animals were subsequently tested at reduced dosage levels, using groups of ten animals per dose. The dose required to produce a specified response, that is, analgesic effect, is termed the individual effective dose; the response is a quantal rather than a graded response, since it is either present or absent. The cumulative frequency distribution of individual effective doses obtained, plotted as a function of logarithm of dose, is known as a dose-percent or dose-response curve. The ED50 and ED90 is then calculated from the dose-response curve obtained in the above experiments. […] The expression ED90 indicates the amount of compound required to produce an analgesic effect in 90 percent of animals tested.

[2] = test system: abdominal constriction response; assay: duration of analgesic activity (abdominal constriction response, time for 50 percent decay of the analgesic effect of the ED90 dosage); format: in vivo, mice; details: for Duration of Activity 1/2 T: time to 50 percent decay of analgesic effect, pharmacologically equipotent doses, based on ED90 dosages; for increase in duration of activity versus unsubstituted control compound (factor): in comparison to the unsubstituted control compound
Method: The analgesic activity of the compounds of the present invention was tested in mice by means of the "abdominal constriction" response. The test is based on the observation that following interperitoneal injection of a noxious agent, such as acetylcholine chloride, mice show a response which consists of a wave of constriction and elongation passing caudally along the abdominal wall, sometimes accompanied by twisting of the trunk and followed by extension of the hind limbs. […] Non-fasted female mice, weighing between 20 and 25 g, were used in the studies. […] The animals were then placed in a circular glass enclosure and the number of responses counted during a given time period.

[3] = subcutaneous, 10 min before i.p. acetylcholine chloride (3.2 mg/kg), mice, read-out: ED50

SMILES | ED50 [1, 3] | ED50 / potency, in words [1] | Duration of Activity 1/2 T [2] | also measured
CCN(CC)CCNC(=O)c1ccccc1O.Cl [Control, N-(2-diethylaminoethyl)salicylamide hydrochloride, reference compound] | 16.6 mg/kg | – | – | analgesic activity, in words ([1]; mice): exhibited analgesic activity
CCN(CC)CCNC(=O)c1cccc(C(C)C)c1O [Example 1, N-(2-diethylaminoethyl)-3-isopropylsalicylamide hydrochloride] | 12.7 mg/kg | substantially at the same potency as that of the control compound | 80 min | –
CCN(CC)CCNC(=O)c1cccc(C)c1O [Example 2, N-(2-diethylaminoethyl)-3-methylsalicylamide hydrochloride] | – | fairly low ED50 | < 40 min | ED50 [1]: 14.2 mg/kg; analgesic activity, in words ([1]; mice): exhibited analgesic activity; duration of analgesic activity, in words ([2]; compared with control or prior art compounds): no meaningful increase in the duration of analgesic activity
CCCCCCCCc1cccc(C(=O)NCCN(CC)CC)c1O [Example 3, N-(2-diethylaminoethyl)-3-n-octylsalicylamide hydrochloride] | – | – | – | analgesic activity (no activity) [1]: no activity; analgesic activity (no activity) ([1]; listed as n-octyl): no analgesic activity
CCCCc1cccc(C(=O)NCCN(CC)CC)c1O [Example 4, N-(2-diethylaminoethyl)-3-n-butylsalicylamide oxalate] | 31 mg/kg | less active analgesics than the other examples and the control sample | 125 min | increase in duration of activity versus unsubstituted control compound (factor) [2]: greater than 5 fold
CCN(CC)CCNC(=O)c1cccc(CC(C)C)c1O [Example 5, N-(2-diethylaminoethyl)-3-isobutylsalicylamide hydrochloride] | 44.5 mg/kg | – | 205 min | increase in duration of activity versus unsubstituted control compound (factor) [2]: greater than 5 fold
CCN(CC)CCNC(=O)c1cccc(C(C)(C)C)c1O [Example 6, N-(2-diethylaminoethyl)-3-t-butylsalicylamide hydrochloride] | 14.3 mg/kg | substantially at the same potency as that of the control compound | 120 min | –
CCN(CC)CCNC(=O)c1cccc(C(C)(C)CC)c1O [Example 7, N-(2-diethylaminoethyl)-3-t-amylsalicylamide hydrochloride] | – | – | – | analgesic activity (no activity) [1]: no activity; analgesic activity (no activity) ([1]; listed as amyl): no analgesic activity
C=CCc1cccc(C(=O)NCCN(CC)CC)c1O [Example 8, N-(2-diethylaminoethyl)-3-allylsalicylamide oxalate] | 17.2 mg/kg | – | 80 min | –
C=C(C)Cc1cccc(C(=O)NCCN(CC)CC)c1O [Example 9, N-(2-diethylaminoethyl)-3-methallylsalicylamide oxalate] | 23.8 mg/kg | substantially at the same potency as that of the control compound | 60 min | –
CCN(CC)CCNC(=O)c1cccc(Cl)c1O [Example 10, N-(2-diethylaminoethyl)-3-chlorosalicylamide hydrochloride] | – | – | – | analgesic activity (no activity) [1]: no activity; analgesic activity (no activity) ([1]; listed as 3-chloro): no analgesic activity
